Measured values published in US20240299353A1, “COMPOSITIONS AND METHODS FOR TREATING […] 5-MEO-DMT” (Alvarius Pharmaceuticals Ltd., priority 2021, published 2024).

System: primary hippocampal neurons
Assay: Structural plasticity of cultured hippocampal neurons, Sholl analysis
Format: cell-based, rat
Conditions: for normalised AUC of the Sholl plot (dendritic arbor complexity): 24 h 5-MeO-DMT (20 μM) or cocaine (25 μM) alone, vs control; for maximum number of intersections (Nmax): FIG. 38C, all treatment groups
Source text: Primary Culture—Primary hippocampal neurons were derived from the hippocampi of embryonic day 18 (E18) rat embryos, as described previously (Seibenhener, M. L. & M. W. Wooten (2012) Isolation and Culture of Hippocampal Neurons from Prenatal Mice. Journal of Visualized Experiments: JoVE, 3634). Briefly, the brains were removed from the skull and stored in cooled Hank's Balanced Salt Solution (HBSS). The hippocampus was isolated under a dissection microscope and digested using 0.05% Trypsin (Gibco) in HBSS for 10 mins after which trypsinisation was stopped by the addition of 2% foetal calf serum (Gibco). Isolated cells were suspended in plating media and viable cells were counted with a haemocytometer using trypan blue (Gibco) staining. Cells were plated at a density of 1×10^6 cells/well on 12-well plates coated with 0.02% Poly-DL-ornithine hydrobromide (Sigma). After plating, cells were incubated at 37° C. in humidified air with 5% C02. Half medium changes were performed every 2-3 days with L-glutamic acid no longer included in the media after 3 DIV.
Immunocytochemistry—Primary hippocampal neurons grown on 18 mm diameter glass coverslips were fixed in 70% ethanol (EtOH) for 20 mins. After fixing, cells were permeabilised in 0.2% Triton X-100 (Thermo Fisher) in PBS and washed in PBS. Cells were blocked in 1% BSA (Sigma) in PBS for 45 mins. Following blocking, cells were incubated with primary antibodies in 5% BSA and 5% normal goat serum (Agilent) for 2 hours in a humidity chamber at room temperature or overnight at 4° C. Cells were rinsed in PBS and incubated with 1 ug/ml 4′,6-Diamidine-2′-phenylindole dihydrochloride (DAPI) (Thermo Fisher) for 10 mins. Coverslips were mounted on microscope slides using mounting medium containing mowiol 4-88 (Sigma), stored in the dark at 4° C. and were imaged within 7 days of mounting. Images were captured on a Zeiss AxioImager M1 fluorescent microscope using a x40 oil immersion lens. 10 images were taken per coverslip and images were analyzed by a customized R script (Appendix I) using EBImage by Bioconductor Ver 3.7. Briefly, DAPI staining was used as a nuclear reference with a threshold of a minimal radius and fluorescent intensity implemented to differentiate DAPI-labelled nuclei against cell debris or non-specific binding. A watershed command in the R script was used to ensure segmentation and identification of nuclei which may be tightly clustered as distinct objects. The nuclei were dilated using kernel expansion to designate the soma region surrounding the nucleus. A distance map was generated for each image which calculates the distance of each foreground pixel (white) to the nearest background pixel (black). Protein expression was measured as the average pixel fluorescence intensity for each cell in each channel. In all experiments cells were stained with an antibody for NeuN, a protein specifically expressed in neurons, to localise protein changes to the neuronal or non-neuronal cellular populations in the culture. Proteins assessed by ICC were 5-HT1AR (FIG. 7A), 5-HT2AR (FIG. 7B).
Primary hippocampal cultures were grown on 18 mm glass coverslips at a density of 1×10^6 cells as described. On 3 DIV all cells underwent a full medium change. […] On 4 DIV, all cells underwent a second full medium change. Cells in the combination group were treated with 2 μM 5-MeO-DMT for a further 24 hours with all other groups beginning a 24-hour treatment. After treatment was completed the cells were fixed and processed as described below.
After termination of drug treatment coverslips were processed and imaged as outlined for immunocytochemistry. In all instances NeuN antibody staining was used to visualize projections from the cell body. Images were analyzed using the Simple Neurite Tracer and Sholl analysis plug-ins for ImageJ Fiji. For the Sholl analysis circle radii of 2 μm increments were used. All images were taken and analyzed by an experimenter blinded to treatment conditions. […]

In the case of `COc1ccc2[nH]cc(CCN(C)C)c2c1` [5-MeO-DMT, 5-methoxy-N,N-dimethyltryptamine], the “normalised AUC of the Sholl plot (dendritic arbor complexity)” value (FIG. 38B) is reported as “increase dendritic arbor complexity”, the “normalised AUC of the Sholl plot” value (FIG. 38B, 24 h cocaine followed by 24 h 5-MeO-DMT) is reported as “increased the normalised AUC relative to either compound alone” and the “maximum number of intersections (Nmax)” value is reported as “unchanged between treatment groups”. The average neurite length (FIG. 38D, cocaine followed by 5-MeO-DMT) was “significantly increased the average neurite length relative to both the control and cocaine alone treatment groups”.
In the case of `COC(=O)[C@H]1[C@@H](OC(=O)c2ccccc2)C[C@@H]2CC[C@H]1N2C.Cl` [cocaine, cocaine hydrochloride, reference compound], the “normalised AUC of the Sholl plot (dendritic arbor complexity)” value (FIG. 38B) is reported as “increase dendritic arbor complexity” and the “maximum number of intersections (Nmax)” value is reported as “unchanged between treatment groups”.
